Entries after “also recorded” stand apart in the source; their conditions may differ. Read-outs that look alike come from different tables or passages of the source. Blank lines part the entries; values can stand above or below the compound they belong to.
Key:
[1] = tested on: partially purified N-mSMase from rat brain; details: Liu et al., J. Biol. Chem. 273, 34472-34479; cited from earlier work
N-mSMase ε = assay: N-mSMase activity assay: hydrolysis of [N-methyl-14C]sphingomyelin with added cations, reducing agents or surfactants; type: biochemical, bovine; details: for influence of reducing agents on N-mSMase ε activity: 0.5-10 mM; for influence of glutathione-like agents on N-mSMase ε activity: 1, 3, 5 or 10 mM
Experimental: (§1) After being dried with a nitrogen stream, [N-methyl-^14C]sphingomyelin (choline residue labeled with ^14C) was suspended in ethanol. 10 μl of a sample was mixed with 100 μl of a reaction solution (10 mM MgSO4, 50 μM [N-methyl-^14C]sphingomyelin (c.a. 60,000 cpm), 2 mM sodium deoxycholate, 100 mM Tris-HCl (pH 7.0)) and incubated at 37° C. for 30 min. Addition of 320 μl of a mixture of chloroform/methanol (1:1 volume ratio) and 30 μl of 2N hydrochloride stopped the reaction. After vortexing and centrifuging the resulting mixture at 10,000× g, 200 μl of the aqueous layer was mixed with 2.5 ml of a scintillation cocktail, such as that manufactured by Packard Instrument Co., U.S.A., identified as “Insta gel-XF”, followed by measuring the radioactivity with the aid of a Packard Tri-carb liquid β-scintillation counter.
In order to examine the dependency of N-mSMase ε activity on Mg^2+, Fraction B obtained in Step 6 of Example 1 was desalted by being applied to a PD-10 column (Sephadex G-25, Pharmacia Biotechnology Co., Sweden) For use, the column was equilibrated twice with distilled water, in advance. The desalted protein fraction (corresponding to protein 10 ng) was measured for N-mSMase ε activity in the presence of […] of MgCl2 in the manner described in Experimental Example 1.
An examination was made of the influence of other cations, such as Ca^2+, Fe^3+, Fe^2+, Zn^2+, Cu^2+ and […] on the activity of N-mSMase ε. To a solution containing the desalted protein fraction (corresponding to protein 10 ng) obtained in C and 5 mM MgCl2, CaCl2, FeCl3, FeCl2, ZnCl2 or CuCl2 was added to yield a final concentration of 0.01, 0.02, 0.05, 0.1, 0.25 or 0.5 mM, followed by the measurement of N-mSMase ε activity in accordance with the procedure of Experimental Example 1.
After the addition of 10 μl of [N-methyl-^14C]sphingomyelin, the N-mSMase activity was measured according to the procedure of Experimental Example 1. For comparison, a Tris-HCl buffer containing no reducing agents was used as a control. The N-mSMase ε activity influenced by the reducing agents was expressed as a percentage relative to the control.
After being treated with 1, 3, 5 or 10 mM of GSSG, cystein, cystein-glycine or γ-glutaric acid-cystein, the activity of N-mSMase ε was measured in the same manner.
Sodium deoxycholate and Triton X-100 were selected as surfactant5 to be tested. The protein fraction obtained in C (corresponding to 10 ng of protein) was measured for N-mSMase ε activity in reaction solutions containing 0.5, 1, 2 and 5 mM of sodium deoxycholate, respectively, in accordance with the procedure of Experimental Example 1. In the case of Triton X-100, it was prepared at concentrations of 0.05, 0.01, 0.5 and 0.1%.

[2] = Kinetic analysis (Lineweaver-Burk), substrate specificity and optimum pH of the purified enzyme; type: biochemical, bovine; details: 0.4, 1.0 and 2.0 mM sodium deoxycholate
Experimental: as §1
The N-mSMase ε prepared in Step 6 of Example 1 was subjected to Lineweaver-Burk analysis. In this regard, enzyme N-mSMase ε was used at amounts of 10 ng or less with the substrate sphingomyelin varying, in concentration, from 6.25 to 100 μM.
Separately, the same Lineweaver-Burk analysis was carried out, but in the presence of 0.4, 1.0 and 2.0 mM sodium deoxycholate. […]

[3] = desalted protein fraction (10 ng), 5 mM MgCl2, chloride salts 0.01-0.5 mM, read-out: IC50, inhibition of enzyme activity (hydrolysis of sphingomyelin) by cations

- influence of reducing agents on N-mSMase ε activity (N-mSMase ε; preincubation 37° C. 10 min): not inhibited
Compound: O[C@H](CS)[C@H](O)CS (racemic) [DTT, dithiothreitol]
- effect on the activity of partially purified rat brain N-mSMase [1]: promoted
- influence of reducing agents on N-mSMase ε activity (N-mSMase ε; preincubation 37° C. 10 min, listed as dithiothreitol): neither dithiothreitol nor 2-mercaptoethanol has any influence

- influence on the activity of N-mSMase ε (N-mSMase ε; concentration of 0.5 mM or less, 5 mM MgCl2): no influence
Compound: [Ca+2].[Cl-].[Cl-] [Ca^2+, CaCl2]

- IC50 (N-mSMase ε; [3]): 28 µM
Compound: [Cl][Cu][Cl] [Cu^2+, CuCl2]

- dependency of N-mSMase ε activity on Mg2+ (N-mSMase ε; 1, 5, 10 and 25 mM MgCl2, desalted fraction B): Mg^2+-concentration dependent
Compound: [Cl-].[Cl-].[Mg+2] [Mg^2+, MgCl2]

- IC50 (N-mSMase ε; [3]): 32 µM
Compound: [Cl-].[Cl-].[Zn+2] [Zn^2+, ZnCl2]

- activity of N-mSMase ε with increasing glutathione concentration up to 3 mM (N-mSMase ε; glutathione up to 3 mM): increases
- IC50 (N-mSMase ε; read-out: IC50, inhibition of sphingomyelinase activity by glutathione, glutathione above 3 mM, preincubation 37° C. 10 min, Tris-HCl pH 7.5): 8000 µM
Compound: N[C@@H](CCC(=O)N[C@@H](CS)C(=O)NCC(=O)O)C(=O)O [glutathione]
- activity of N-mSMase ε at 10 mM glutathione (N-mSMase ε; glutathione 10 mM): fully inhibited; also recorded: completely inhibited

The remaining lines, values behind:

Compound: OCCS [2-mercaptoethanol]
- influence of reducing agents on N-mSMase ε activity (N-mSMase ε; preincubation 37° C. 10 min): not inhibited; also recorded: neither dithiothreitol nor 2-mercaptoethanol has any influence

Compound: N[C@@H](CS)C(=O)O [cystein]
- influence of glutathione-like agents on N-mSMase ε activity (N-mSMase ε): inhibited; also recorded: reduction in the activity

Compound: N[C@@H](CCC(=O)N[C@@H](CS)C(=O)O)C(=O)O [γ-glutaric acid-cystein]
- influence of glutathione-like agents on N-mSMase ε activity (N-mSMase ε): inhibited; also recorded: reduction in the activity

Compound: oxidized glutathione [GSSG]
- influence of glutathione-like agents on N-mSMase ε activity (N-mSMase ε): inhibited; also recorded: reduction in the activity

Compound: phosphatidylserine
- effect on the activity of partially purified rat brain N-mSMase [1]: promoted

Compound: sodium deoxycholate
- effect on the Km value of N-mSMase ε [2]: could not change
